Measured values reported in the NIST ThermoML archive (doi:10.1021/je060033f).
Numbers after ± are expanded uncertainties.

Assay: activity coefficient (dimensionless); of the first substance listed, at infinite dilution; xn = mol fraction of the nth substance listed
Settings: 323.15 K; 101 kPa; Liquid; Chromatography; x1 = 0

Structure (SMILES) | activity coefficient
ClCCl [dichloromethane] + C=CCn1cc[n+](C)c1.[Br-] | 0.33 ± 0.03
ClCCl [dichloromethane] + CCCCCCCCCCCC[n+]1ccn(CCCB(O)O)c1.[Br-] | 0.34 ± 0.03
ClCCl [dichloromethane] + CCCCCCCCCC[n+]1ccn(CCCB(O)O)c1.[Br-] | 0.25 ± 0.03
ClCCl [dichloromethane] + CCCCCCCC[n+]1ccn(CCCB(O)O)c1.[Br-] | 0.41 ± 0.03
ClCCl [dichloromethane] + C[n+]1ccn(CCCB(O)O)c1.[Br-] | 3.2 ± 0.22
CCOCC [diethyl ether] + C=CC[n+]1ccn(CCCCCCCC)c1.[Br-] | 4.18 ± 0.28
CCOCC [diethyl ether] + C=CC[n+]1ccn(CCCCCCCCCC)c1.[Br-] | 3.54 ± 0.24
CCOCC [diethyl ether] + C=CC[n+]1ccn(CCCCCCCCCCCC)c1.[Br-] | 2.95 ± 0.2
CCOCC [diethyl ether] + C=CCn1cc[n+](C)c1.[Br-] | 11.4 ± 0.78
CCO [ethanol] + C=CC[n+]1ccn(CCCCCCCC)c1.[Br-] | 0.27 ± 0.03
CCO [ethanol] + C=CC[n+]1ccn(CCCCCCCCCC)c1.[Br-] | 0.26 ± 0.03
CCO [ethanol] + C=CC[n+]1ccn(CCCCCCCCCCCC)c1.[Br-] | 0.23 ± 0.03
CCO [ethanol] + C=CCn1cc[n+](C)c1.[Br-] | 0.27 ± 0.03
CCc1ccccc1 [ethylbenzene] + C=CC[n+]1ccn(CCCCCCCC)c1.[Br-] | 2.56 ± 0.17
CCc1ccccc1 [ethylbenzene] + C=CC[n+]1ccn(CCCCCCCCCC)c1.[Br-] | 2.54 ± 0.17
CCc1ccccc1 [ethylbenzene] + C=CC[n+]1ccn(CCCCCCCCCCCC)c1.[Br-] | 1.77 ± 0.12
CCc1ccccc1 [ethylbenzene] + C=CCn1cc[n+](C)c1.[Br-] | 11.1 ± 0.76
CCc1ccccc1 [ethylbenzene] + CCCCCCCCCCCC[n+]1ccn(CCCB(O)O)c1.[Br-] | 3.83 ± 0.26
CCc1ccccc1 [ethylbenzene] + CCCCCCCCCC[n+]1ccn(CCCB(O)O)c1.[Br-] | 2.37 ± 0.16
CCc1ccccc1 [ethylbenzene] + CCCCCCCC[n+]1ccn(CCCB(O)O)c1.[Br-] | 3.28 ± 0.22

Structure (SMILES) | activity coefficient
CCc1ccccc1 [ethylbenzene] + C[n+]1ccn(CCCB(O)O)c1.[Br-] | 45.1 ± 3.1
CCCCCCC [heptane] + C=CC[n+]1ccn(CCCCCCCC)c1.[Br-] | 11.4 ± 0.78
CCCCCCC [heptane] + C=CC[n+]1ccn(CCCCCCCCCC)c1.[Br-] | 11.1 ± 0.76
CCCCCCC [heptane] + C=CC[n+]1ccn(CCCCCCCCCCCC)c1.[Br-] | 5.32 ± 0.36
CCCCCCC [heptane] + C=CCn1cc[n+](C)c1.[Br-] | 49.6 ± 3.4
CCCCCCC [heptane] + CCCCCCCCCCCC[n+]1ccn(CCCB(O)O)c1.[Br-] | 5.36 ± 0.37
CCCCCCC [heptane] + CCCCCCCCCC[n+]1ccn(CCCB(O)O)c1.[Br-] | 7.04 ± 0.48
CCCCCCC [heptane] + CCCCCCCC[n+]1ccn(CCCB(O)O)c1.[Br-] | 20.2 ± 1.4
CCCCCCC [heptane] + C[n+]1ccn(CCCB(O)O)c1.[Br-] | 77.6 ± 5.3
C=CCCCC [hex-1-ene] + C=CC[n+]1ccn(CCCCCCCC)c1.[Br-] | 5.93 ± 0.4
C=CCCCC [hex-1-ene] + C=CC[n+]1ccn(CCCCCCCCCC)c1.[Br-] | 5.89 ± 0.4
C=CCCCC [hex-1-ene] + C=CC[n+]1ccn(CCCCCCCCCCCC)c1.[Br-] | 3.47 ± 0.24
C=CCCCC [hex-1-ene] + C=CCn1cc[n+](C)c1.[Br-] | 16.5 ± 1.1
ClC(Cl)(Cl)Cl [tetrachloromethane] + C=CC[n+]1ccn(CCCCCCCC)c1.[Br-] | 0.82 ± 0.05
ClC(Cl)(Cl)Cl [tetrachloromethane] + C=CC[n+]1ccn(CCCCCCCCCC)c1.[Br-] | 0.8 ± 0.05
ClC(Cl)(Cl)Cl [tetrachloromethane] + C=CC[n+]1ccn(CCCCCCCCCCCC)c1.[Br-] | 0.7 ± 0.05
ClC(Cl)(Cl)Cl [tetrachloromethane] + C=CCn1cc[n+](C)c1.[Br-] | 1.54 ± 0.1
ClC(Cl)(Cl)Cl [tetrachloromethane] + CCCCCCCCCCCC[n+]1ccn(CCCB(O)O)c1.[Br-] | 0.9 ± 0.06
ClC(Cl)(Cl)Cl [tetrachloromethane] + CCCCCCCCCC[n+]1ccn(CCCB(O)O)c1.[Br-] | 0.79 ± 0.05
ClC(Cl)(Cl)Cl [tetrachloromethane] + CCCCCCCC[n+]1ccn(CCCB(O)O)c1.[Br-] | 1.23 ± 0.08

Results, then the compound that gave them:

activity coefficient | Structure (SMILES)
3.6 ± 0.25 | C=CCCCC [hex-1-ene] + CCCCCCCCCCCC[n+]1ccn(CCCB(O)O)c1.[Br-]
3.76 ± 0.26 | C=CCCCC [hex-1-ene] + CCCCCCCCCC[n+]1ccn(CCCB(O)O)c1.[Br-]
8.32 ± 0.57 | C=CCCCC [hex-1-ene] + CCCCCCCC[n+]1ccn(CCCB(O)O)c1.[Br-]
8.9 ± 0.61 | CCCCCC [hexane] + C=CC[n+]1ccn(CCCCCCCC)c1.[Br-]
8.39 ± 0.57 | CCCCCC [hexane] + C=CC[n+]1ccn(CCCCCCCCCC)c1.[Br-]
4.41 ± 0.3 | CCCCCC [hexane] + C=CC[n+]1ccn(CCCCCCCCCCCC)c1.[Br-]
25.1 ± 1.7 | CCCCCC [hexane] + C=CCn1cc[n+](C)c1.[Br-]
4.65 ± 0.32 | CCCCCC [hexane] + CCCCCCCCCCCC[n+]1ccn(CCCB(O)O)c1.[Br-]
5.45 ± 0.37 | CCCCCC [hexane] + CCCCCCCCCC[n+]1ccn(CCCB(O)O)c1.[Br-]
18.2 ± 1.2 | CCCCCC [hexane] + CCCCCCCC[n+]1ccn(CCCB(O)O)c1.[Br-]
0.17 ± 0.03 | CO [methanol] + C=CC[n+]1ccn(CCCCCCCC)c1.[Br-]
0.17 ± 0.03 | CO [methanol] + C=CC[n+]1ccn(CCCCCCCCCC)c1.[Br-]
0.15 ± 0.03 | CO [methanol] + C=CC[n+]1ccn(CCCCCCCCCCCC)c1.[Br-]
0.18 ± 0.03 | CO [methanol] + C=CCn1cc[n+](C)c1.[Br-]
0.04 | CO [methanol] + CCCCCCCCCCCC[n+]1ccn(CCCB(O)O)c1.[Br-]
0.05 | CO [methanol] + CCCCCCCCCC[n+]1ccn(CCCB(O)O)c1.[Br-]
0.04 | CO [methanol] + CCCCCCCC[n+]1ccn(CCCB(O)O)c1.[Br-]
0.05 | CO [methanol] + C[n+]1ccn(CCCB(O)O)c1.[Br-]
17.4 ± 1.2 | CCCCCCCCC [nonane] + C=CC[n+]1ccn(CCCCCCCC)c1.[Br-]
16.9 ± 1.2 | CCCCCCCCC [nonane] + C=CC[n+]1ccn(CCCCCCCCCC)c1.[Br-]
6.93 ± 0.47 | CCCCCCCCC [nonane] + C=CC[n+]1ccn(CCCCCCCCCCCC)c1.[Br-]
65.6 ± 4.5 | CCCCCCCCC [nonane] + C=CCn1cc[n+](C)c1.[Br-]
6.99 ± 0.48 | CCCCCCCCC [nonane] + CCCCCCCCCCCC[n+]1ccn(CCCB(O)O)c1.[Br-]
9.92 ± 0.68 | CCCCCCCCC [nonane] + CCCCCCCCCC[n+]1ccn(CCCB(O)O)c1.[Br-]
26.2 ± 1.8 | CCCCCCCCC [nonane] + CCCCCCCC[n+]1ccn(CCCB(O)O)c1.[Br-]

activity coefficient | Structure (SMILES)
83.2 ± 5.7 | CCCCCCCCC [nonane] + C[n+]1ccn(CCCB(O)O)c1.[Br-]
14.9 ± 1 | CCCCCCCC [octane] + C=CC[n+]1ccn(CCCCCCCC)c1.[Br-]
14.3 ± 0.98 | CCCCCCCC [octane] + C=CC[n+]1ccn(CCCCCCCCCC)c1.[Br-]
6.37 ± 0.43 | CCCCCCCC [octane] + C=CC[n+]1ccn(CCCCCCCCCCCC)c1.[Br-]
63 ± 4.3 | CCCCCCCC [octane] + C=CCn1cc[n+](C)c1.[Br-]
6.34 ± 0.43 | CCCCCCCC [octane] + CCCCCCCCCCCC[n+]1ccn(CCCB(O)O)c1.[Br-]
8.81 ± 0.6 | CCCCCCCC [octane] + CCCCCCCCCC[n+]1ccn(CCCB(O)O)c1.[Br-]
23.6 ± 1.6 | CCCCCCCC [octane] + CCCCCCCC[n+]1ccn(CCCB(O)O)c1.[Br-]
81 ± 5.5 | CCCCCCCC [octane] + C[n+]1ccn(CCCB(O)O)c1.[Br-]
1.93 ± 0.13 | CCCC(C)=O [pentan-2-one] + C=CC[n+]1ccn(CCCCCCCC)c1.[Br-]
1.78 ± 0.12 | CCCC(C)=O [pentan-2-one] + C=CC[n+]1ccn(CCCCCCCCCC)c1.[Br-]
1.62 ± 0.11 | CCCC(C)=O [pentan-2-one] + C=CC[n+]1ccn(CCCCCCCCCCCC)c1.[Br-]
4.32 ± 0.29 | CCCC(C)=O [pentan-2-one] + C=CCn1cc[n+](C)c1.[Br-]
1.63 ± 0.11 | CCCC(C)=O [pentan-2-one] + CCCCCCCCCCCC[n+]1ccn(CCCB(O)O)c1.[Br-]
1.67 ± 0.11 | CCCC(C)=O [pentan-2-one] + CCCCCCCCCC[n+]1ccn(CCCB(O)O)c1.[Br-]
2.32 ± 0.16 | CCCC(C)=O [pentan-2-one] + CCCCCCCC[n+]1ccn(CCCB(O)O)c1.[Br-]
24.2 ± 1.7 | CCCC(C)=O [pentan-2-one] + C[n+]1ccn(CCCB(O)O)c1.[Br-]
0.28 ± 0.03 | CCCO [propan-1-ol] + C=CC[n+]1ccn(CCCCCCCC)c1.[Br-]
0.28 ± 0.03 | CCCO [propan-1-ol] + C=CC[n+]1ccn(CCCCCCCCCC)c1.[Br-]
0.23 ± 0.03 | CCCO [propan-1-ol] + C=CC[n+]1ccn(CCCCCCCCCCCC)c1.[Br-]
0.54 ± 0.04 | CCCO [propan-1-ol] + C=CCn1cc[n+](C)c1.[Br-]
0.36 ± 0.03 | CC(C)O [propan-2-ol] + C=CC[n+]1ccn(CCCCCCCC)c1.[Br-]
0.35 ± 0.03 | CC(C)O [propan-2-ol] + C=CC[n+]1ccn(CCCCCCCCCC)c1.[Br-]
0.29 ± 0.03 | CC(C)O [propan-2-ol] + C=CC[n+]1ccn(CCCCCCCCCCCC)c1.[Br-]
0.69 ± 0.05 | CC(C)O [propan-2-ol] + C=CCn1cc[n+](C)c1.[Br-]
